Experimental data: US9487794B2, “Feruloyl-CoA:monolignol transferase” (Board of Trustees of Michigan State University, priority 2010, dated 2016)

What was measured:
[1] = test system: feruloyl-CoA:monolignol transferase (FMT); experiment: Feruloyl-CoA:monolignol transferase (FMT) enzymatic assay, substrate test with UPLC detection of product; assay type: biochemical, Angelica sinensis; settings: purified recombinant FMT; for product formed from CoA thioester as acyl donor: coniferyl alcohol as acyl acceptor (FIGS. 2, 6, 7); for FMT activity with monolignol as acyl acceptor: feruloyl-CoA as acyl donor (FIGS. 2, 4, 5)
Description: The feruloyl-CoA, p-coumaroyl-CoA, and caffeoyl-CoA substrates used in the FMT assay were enzymatically synthesized using the tobacco 4-coumarate-CoA-ligase (4CL) with a c-terminal HIS tag in pCRT7/CT TOPO, provided by Eran Pichersky. Following a method modified from Beuerle and Pichersky (Anal. Biochem. 302(2): 305-12 (2001)) 3.3 mg of ferulic acid, coumaric acid or caffeic acid, 2 mg coenzyme A, and 6.9 mg ATP were added to 50 mM Tris-hydrochloride pH 8 and 2.5 mM magnesium chloride in a final volume of 10 ml. The reaction was started by adding 0.25 mg 4CL, protein purified as described by the method of Beurerle and Pichershy. After a five-hour incubation at room temperature, additional 6.9 mg ATP, 2 mg coenzyme A, and 0.25 mg purified 4CL were added and the reaction was incubated overnight. The CoA esters were purified on an SPE cartridge as described in Beuerle and Pichersky (2001).
(§1) The FMT activity assay contained 100 mM MOPS pH 6.8, 1 mM dithiothreitol (DTT), 1 mM feruloyl-CoA, 1 mM coniferyl alcohol, 3.9 μg of purified FMT protein and deionized water to a volume of 50 μL. After a 30-minute incubation, 1 μL of 10 M hydrochloric acid was added to stop the reaction. Because the product synthesized in the reaction, coniferyl ferulate (CAFA), is insoluble, 50 μL of methanol was added to solubilize the CAFA. Prior to UPLC, protein and insoluble material were removed by filtering through an Amicon Ultracel 10K membrane filter (Millipore). The flow-through was analyzed using an Acquity Ultra Performance LC with an Acquity UPLC BEH C18 1.7 μm 2.1×100 mm column and the Acquity Console and Empower 2 Software, all from Waters Corporation. The solvents used in this method were solvent A, 0.1% trifluoroacetic acid, and solvent B, 100% acetonitrile. Samples were analyzed using the following gradient conditions, 13% B, for 5 minutes, 1 minute linear gradient to 42% B, held for 4 minutes, 1 minute linear gradient to 100% B, held for 1 minutes and 3 minutes at 13% B with a flow rate of 0.3 ml/minute. This method was then used to analyze a 10 μL injection of each assay reaction; standards for each of the substrates along with chemically synthesized CAFA were used to determine retention times for each compound.
Purified recombinant enzyme was assayed for FMT activity using a reaction mixture containing 2 mM coniferyl alcohol, […], 100 mM HEPES pH 7.4 and 1 mM DTT. The second most abundant BAHD acyltransferase gene when incubated with Coniferyl alcohol and feruloyl-CoA produced a compound with the retention time of authentic coniferyl ferulate (CAFA) (FIG. 2). […] The addition of methanol to 50% after stopping the enzyme with acid was required to analyze the product by UPLC. The insolubility of the product made partial purification easy as the product was separated from the substrates by centrifugation.
This partial purified product was analyzed by NMR. The identity of the product as CAFA was confirmed by ^1H-NMR (FIG. 3). The enzyme was tested with p-coumaryl alcohol (FIG. 4) and sinapyl alcohol (FIG. 5) in addition to coniferyl alcohol (FIG. 2). The enzyme is active with all three monolignols, i.e., p-coumaryl alcohol, coniferyl alcohol and sinapyl alcohol. The enzyme was tested with p-coumaroyl-CoA (FIG. 6) and caffeoyl-CoA (FIG. 7) as well as feruloyl-CoA (FIG. 2).

[2] = Solubility of the enzyme product in the aqueous assay mixture; assay type: physicochemical; settings: FMT reaction product; methanol to 50% needed to solubilize
Description: as §1, with “compound. […]” for “compound.”

| SMILES | product formed from CoA thioester as acyl donor [1] | FMT activity with monolignol as acyl acceptor [1] | other results |
| --- | --- | --- | --- |
| OC/C=C/c1ccc(O)cc1 [p-coumaryl alcohol] | – | active | – |
| COc1cc(/C=C/CO)cc(OC)c1O [sinapyl alcohol] | – | active | – |
| COc1cc(/C=C/COC(=O)/C=C/c2ccc(O)c(OC)c2)ccc1O [coniferyl ferulate] | – | – | solubility in water [2]: mostly insoluble in water |

The next lines start with results.

| product formed from CoA thioester as acyl donor [1] | FMT activity with monolignol as acyl acceptor [1] | SMILES | other results |
| --- | --- | --- | --- |
| substantial product | – | COc1cc(/C=C/C(=O)SCCNC(=O)CCNC(=O)[C@H](O)C(C)(C)COP(=O)(O)OP(=O)(O)OC[C@H]2O[C@@H](n3cnc4c(N)ncnc43)[C@H](O)[C@@H]2OP(=O)(O)O)ccc1O [feruloyl-CoA] | – |
| – | active | COc1cc(/C=C/CO)ccc1O [coniferyl alcohol] | – |
| very little product | – | CC(C)(COP(=O)(O)OP(=O)(O)OC[C@H]1O[C@@H](n2cnc3c(N)ncnc32)[C@H](O)[C@@H]1OP(=O)(O)O)[C@@H](O)C(=O)NCCC(=O)NCCSC(=O)/C=C/c1ccc(O)c(O)c1 [caffeoyl-CoA] | – |
| very little product | – | CC(C)(COP(=O)(O)OP(=O)(O)OC[C@H]1O[C@@H](n2cnc3c(N)ncnc32)[C@H](O)[C@@H]1OP(=O)(O)O)[C@@H](O)C(=O)NCCC(=O)NCCSC(=O)/C=C/c1ccc(O)cc1 [p-coumaroyl-CoA] | – |
